Measurements published in ChEMBL document CHEMBL1147482, “Novel and potent transforming growth factor beta type I receptor kinase domain inhibitor: 7-amino 4-(2-pyridin-2-yl-5,6-dihydro-4H-pyrrolo[1,2-b]pyrazol-3-yl)-quinolines” (Bioorg Med Chem Lett, 2004).

How the values were obtained:
NIH3T3 = assay: Inhibitory activity tested in NIH 3T3 cells; type: functional, cell-based; conditions: Mus musculus
[1] = target: Mitogen-activated protein kinase 14 (Homo sapiens, UniProt Q16539); assay: Inhibitory activity against Mitogen-activated protein kinase p38
[2] = Inhibitory activity against TGF-beta dependent luciferase production in mink lung cells p3TP Lux; type: functional, cell-based

Sequence of Mitogen-activated protein kinase 14 (Q16539 whole entry): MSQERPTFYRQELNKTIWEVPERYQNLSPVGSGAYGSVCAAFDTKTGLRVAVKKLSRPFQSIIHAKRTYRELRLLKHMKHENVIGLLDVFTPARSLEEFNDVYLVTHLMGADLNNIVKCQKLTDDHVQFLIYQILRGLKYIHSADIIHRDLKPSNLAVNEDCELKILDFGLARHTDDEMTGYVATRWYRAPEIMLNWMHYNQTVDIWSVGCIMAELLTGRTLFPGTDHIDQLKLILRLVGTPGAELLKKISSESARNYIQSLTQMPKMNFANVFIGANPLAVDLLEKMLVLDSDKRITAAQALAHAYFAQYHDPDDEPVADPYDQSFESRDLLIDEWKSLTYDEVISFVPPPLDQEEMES

IC50 [1] [nM] | IC50 [2] [nM] | Compound | IC50 (NIH3T3) [nM]
620 | 143 | CCc1cccc(-c2nn3c(c2-c2ccnc4ccccc24)CCC3)n1 | 500
15000 | 2000 | CC(C)c1cccc(-c2nn3c(c2-c2ccnc4ccccc24)CCC3)n1 | 2000
1600 | 285 | CCSc1ccc2c(-c3c(-c4ccccn4)nn4c3CCC4)ccnc2c1 | 326
59 | 86 | CCOc1ccc2c(-c3c(-c4cccc(C)n4)nn4c3CCC4)ccnc2c1 | 152
9800 | > 20000 | CCS(=O)(=O)c1ccc2c(-c3c(-c4ccccn4)nn4c3CCC4)ccnc2c1 | 
 | 1510 | Cc1cccc(-c2nn3c(c2-c2ccc(F)c(F)c2)CCC3)n1 | 1040
440 | 93 | Cc1cccc(-c2nn3c(c2-c2ccnc4cc(Cl)ccc24)CCC3)n1 | 727
1800 | 196 | Clc1ccc2c(-c3c(-c4ccccn4)nn4c3CCC4)ccnc2c1 | 282
680 | 94 | Cc1cccc(-c2nn3c(c2-c2ccnc4ccccc24)CCC3)n1 | 280

Second part, the molecule before the results:

Compound | IC50 [1] [nM] | IC50 [2] [nM] | IC50 (NIH3T3) [nM]
Cc1cccc(-c2nn3c(c2-c2ccc(O)cc2)CCC3)n1 | 4300 | 22 | 105
c1ccc(-c2nn3c(c2-c2ccnc4ccccc24)CCC3)nc1 | 7900 | 345 | 51000
Cc1ccc(-c2c(-c3cccc(C)n3)nn3c2CCC3)cc1 |  | > 20000 | > 20000
COc1ccc(-c2c(-c3cccc(C)n3)nn3c2CCC3)cc1 | 4600 | 304 | 397
Fc1ccc(-c2c(-c3ccccn3)nn3c2CCC3)cc1 | > 20000 | 3860 | 3330
COc1ccc(-c2c(-c3ccccn3)nn3c2CCC3)cc1 |  | 6830 | 4710
Cc1cccc(-c2nn3c(c2-c2ccc(S(C)(=O)=O)cc2)CCC3)n1 |  | > 20000 | > 20000
Fc1ccc(-c2nn3c(c2-c2ccnc4ccccc24)CCC3)nc1 | 11000 | 475 | 664
Fc1ccc(-c2c(-c3cccc(C(F)(F)F)n3)nn3c2CCC3)cc1 |  | 2550 | 1200
Cc1cccc(-c2nn3c(c2-c2ccc(F)cc2)CCC3)n1 | > 20000 | 96 | 339
OCc1cccc(-c2nn3c(c2-c2ccc(F)cc2)CCC3)n1 |  | 11800 | 5620
Cc1cccc(-c2n[nH]cc2-c2ccc(O)cc2)n1 | 31000 |  | 
